Reference: patent US20160250285A1, “NEUROPROTECTIVE PEPTIDES” (priority 2013, published 2016)
pIC50: −log10 of the molar value. Entries after “also recorded” stand apart in the source; their conditions may differ.

Assays:
primary rat astrocytes = assay: In vitro ischemia/OGD model, astrocytes; format: cell-based; details: 2 μM, 15 min prior to OGD (FIG. 42)
Description: (§1) A brain endothelial cell line (bEND3) and a neuroblastoma cell line (SH-SY5Y) were also used for some experiments. bEND3 and SH-SY5Y cells were cultured using standard techniques in DMEM plus 5 or 15% foetal calf serum. Rat primary astrocytes were obtained and cultured as described for cortical neurons except DMEM plus 10% foetal calf serum was used instead of Neurobasal/2% B27, and the mitotic inhibitor, cytosine arabinofuraNOside was not used.
(§2) The in vitro ischemia model was also used for bEND3 cells, SH-SY5Y cells, and astrocytes. For bEND3 cells anaerobic incubation was extended to 2-3 hours and upon removal from the anaerobic incubator, 60 μl of DMEM/2% FCS was added to wells. […]
(§3) Twenty-four hours after insult, neuronal cultures were examined by light microscopy for qualitative assessment of neuronal cell viability. Neuronal viability was quantitatively measured by 3-(4,5,dimethyliazol-2-yl)-5-(3-carboxymethoxy-phenyl)-2-(4-sulfophenyl)-2H-tetrazolium salt (MTS) assay (Promega, Australia). The MTS assay measures the cellular conversion of the tetrazolium salt to a water-soluble brown formazan salt, which is detected spectrophotometrically at 490 nm. MTS absorbance data were converted to reflect proportional cell viability relative to both the untreated and treated controls, with the untreated control taken as 100% viability, and presented as mean±SEM. […]

[1] = test system: neuroblastoma cell line (SH-SY5Y); assay: In vitro ischemia model, SH-SY5Y cells; format: cell-based; details: 5 μM during/2.5 μM post (FIG. 3c)
Description: as §1, §2, §3

[2] = test system: primary cortical neuronal cultures
Description: Establishment of cortical cultures was as previously described (Meloni et al. 2001). Briefly, cortical tissue from E18-E19 Sprague-Dawley rats was dissociated in Dulbecco's modified Eagle medium (DMEM; Invitrogen, Australia) supplemented with 1.3 mM L-cysteine, 0.9 mM NaHCOa, 10 units/ml papain (Sigma, USA) and 50 units/ml DNase (Sigma) and washed in cold DMEM/10% horse serum. Neurons were resuspended in Neurobasal (Invitrogen) containing 2% B27 supplement (B27; Invitrogen). Before seeding, 96-well sized glass wells (6 mm diameter, ProTech, Australia) or 96-well plastic plates (ProSciTech, Australia) were coated with poly-D-lysine overnight ([…]: 50 mg/mL; 70-150 K, Sigma). Excess poly-D-lysine solution was then removed and replaced with Neurobasal (containing 2% B27; 4% fetal bovine serum; 1% horse serum; […] glutamate; […] 2-mercaptoethanol; and […]). Neurons were plated to obtain ≈10,000 viable neurons for each well on day in vitro 11-12. Neuronal cultures were maintained in a CO2 incubator (5% CO2, 95% air balance, 98% humidity) at 37° C. On day in vitro 4 one third of the culture medium was removed and replaced with fresh Neurobasal/2% B27 containing the mitotic inhibitor, cytosine arabinofuraNOside (1 mM final concentration; Sigma). On day in vitro 8 one half of the culture medium was replaced with Neurobasal/2% B27. Cultures were used on day in vitro 11 or 12 after which time they routinely consist of >97% neurons and 1-3% astrocytes (Meloni et al. 2001).
Peptides were added to culture wells (96-well plate format) 15 minutes prior to glutamic acid or kainic acid exposure by removing media and adding 50 μl of Neurobasal/2% 327 containing CPPs, control peptides or MK801/CNQX. To induce excitotoxicity, 50 μl of Neurobasal/2% B27 containing glutamic acid (200 μM) or kainic acid (400 μM) or NMDA (200 μM) was added to the culture wells (100 μM glutamic acid, 200 μM kainic acid and NMDA 100 μM final concentration). Cultures were incubated at 37° C. in the CO2 incubator for 5 minutes for glutamic acid, 45 minutes for kainic acid and 10 minutes for NMDA exposure, after which time the media was replaced with 100 μl of 50% Neurobasal/2% N2 supplement (Invitrogen) and 50% balanced salt solution (BSS; see below). Cultures were incubated for a further 24 hours at 37° C. in the CO2 incubator. The untreated controls with or without glutamic acid or kainic acid treatment received the same wash steps and media additions.
Twenty-four hours after insult, neuronal cultures were examined by light microscopy for qualitative assessment of neuronal cell viability. Neuronal viability was quantitatively measured by 3-(4,5,dimethyliazol-2-yl)-5-(3-carboxymethoxy-phenyl)-2-(4-sulfophenyl)-2H-tetrazolium salt (MTS) assay (Promega, Australia). The MTS assay measures the cellular conversion of the tetrazolium salt to a water-soluble brown formazan salt, which is detected spectrophotometrically at 490 nm. MTS absorbance data were converted to reflect proportional cell viability relative to both the untreated and treated controls, with the untreated control taken as 100% viability, and presented as mean±SEM. For studies using astrocytes, bEND3, and SH-Y5Y cells, raw MTS data was used to generate graphs. Viability data was analysed by ANOVA, followed by post-hoc Fischer's PLSD test, with P<0.05 values considered statistically significant. Four- to six wells were used in all assays.

Compound	astrocyte cell death after in vitro ischemia (primary rat astrocytes)	protection of SH-SY5Y cells (cell death after in vitro ischemia) [1]	neuroprotection ([2]; FIG. 2)	fold more potent than TAT-D, based on IC50 values ([2]; kainic acid model)	pIC50 ([2]; read-out: IC50: Kainic acid model, Table 3, from FIG. 2, 200 μM kainic acid 45 min, viability 24 h, MTS)
H-RRRRRRRRRRRRRRRRRR-OH [Peptide R18]	reduced astrocyte cell death				
N=C(N)NCCC[C@H](NC(=O)[C@H](CCCNC(=N)N)NC(=O)[C@H](CCCNC(=N)N)NC(=O)[C@H](CCCNC(=N)N)NC(=O)[C@H](CCCNC(=N)N)NC(=O)[C@H](CCCNC(=N)N)NC(=O)[C@H](CCCNC(=N)N)NC(=O)[C@H](CCCNC(=N)N)NC(=O)[C@@H](N)CCCNC(=N)N)C(=O)O [Peptide R9]		reduced; also recorded: able to protect	neuroprotective	7 fold	6.09
